The record followed here is patent US11760784B2, “Compositions comprising PEDF-derived short peptides and uses thereof” (BRIM Biotechnology, Inc., priority 2016, dated 2023).

Assay [1] relates to desiccating stress-induced dry eye. As to the kind of experiment: Corneal fluorescein staining in desiccating stress-induced dry eye (CEC) mice. It counts as in vivo, C57BL/6 mice. The settings on record: CEC 14 days, then peptide for 3 days (FIG. 11).
Assay [2] shares this test system. The description is as above. It counts as in vivo, C57BL/6 mice. The procedure:
In an animal model for dry eye diseases, mice were placed in a controlled environment chamber (CEC) to induce dry eyes as previously described (Barabino et al., 2005). Mice placed in the CEC were exposed to a relative humidity (RH)<25%, temperature of 20 to 22° C., with an airflow of 15 L/min, 12 hours per day. Non-Stressed mice were kept in a normal environment (RH >50%, no air flow, temperature of 21-23° C.) for the same duration. After 14 days, non-stressed mice were treated with vehicle, while the stressed mice were treated with either a test peptide (e.g., the 29mer PDSP) or vehicle solution (Vehicle group) for 5 days. Then, the cornea was examined with fluorescein staining.
Seven to 8-week-old female C57BL/6 mice were used for these experiments. Experimental procedures were approved by the Mackay Memorial Hospital Review Board and conducted according to the ARVO Statement for the Use of Animals in Ophthalmic and Vision Research.
(§1) Dry eye was induced by placing mice in a controlled environment chamber (CEC) as previously described (Barabino et al., 2005). Briefly, mice placed in the CEC were exposed to a relative humidity (RH)<25%, temperature of 20 to 22° C., and airflow of 15 L/min, 12 hours per day. Non-stressed (NS) mice without stress-induced dry eye were kept in a normal environment (RH >50%, no air flow, temperature of 21-23° C.) for the same duration. Corneal fluorescein staining and
Animals were anesthetized by an intraperitoneal injection of a mixture of zoletil (6 mg/kg) and xylazine (3 mg/kg). Corneal epithelial injury was determined by staining with topical fluorescein (Fluor-I-Strip, Ayerst Laboratories, Philadelphia, Pa.). Corneal fluorescein staining was examined with a slit-lamp biomicroscope under cobalt blue light and photographed with a digital camera. Dye staining of the cornea was scored in a manner as follows: score 0 for no punctuate staining; score 1 when less than one third of the cornea was stained; score 2 when two thirds or less was stained; and score 3 when more than two thirds was stained (Horwath-Winter J 2013).
To determine whether PDSP have therapeutic effects in a desiccating stress (DS)-induced ocular surface defects, mice were housed at controlled environment chamber (CEC) for 14 days to create ocular surface disruption. After 14 days in CEC, we used mice with fluorescence scores that are above 2 for the first experiments (FIG. 1A). Subsequently, dry eyes were treated topically with PDSP at 25-200 μM (3 times/day) or PDSP vehicle (1% CMC in BSS) for another 5 days while maintaining the same desiccating stress protocol.
To investigate whether the PDSP can suppress DS-induced corneal epithelial disruption, we applied the 14-day desiccating stress protocol to mice, and treated these mice topically with PDSP 3 times a day.

The test system of another assay is 4-HNE. As to the kind of experiment: 4-HNE immunohistochemistry (lipid peroxidation) in cornea and conjunctiva of CEC mice. Conditions: PDSP from beginning of 14 days in CEC. It counts as in vivo. The source says: For this test, mice were housed in CEC for 14 days and the PDSP treatment started at the beginning of housing in CEC. Then, the production of oxidative stress products (e.g., 4-hydroxy-2-nonenal, 4-HNE) was examined. 4-HNE was found throughout animal tissues, and in higher quantities during oxidative stress due to the increase in the lipid peroxidation. 4-HNE contains a reactive aldehyde, which may modify proteins. The 4-HNE-modified proteins may be detected with antibodies specific for the 4-HNE moiety.
Oxidative stress-induced lipid peroxidation was assessed by immunohistochemical detection of 4-hydroxy-2-nonenal (4HNE) in the cornea and conjunctiva. Formalin-fixed, paraffin-embedded eye specimens were deparaffinized in xylene and rehydrated in a graded series of ethanol concentrations. Slides were blocked with 10% goat serum for 60 min and then incubated with primary antibody against 4-HNE (1:100 dilution) (ab46545, Abcam) 4 hours at room temperature. The slides were subsequently incubated with the appropriate peroxidase-labeled goat immunoglobulin (1:500 dilution; Chemicon, Temecula, Calif.) for 20 min and then incubated with chromogen substrate (3,3′-diaminobenzidine) for 2 min before counterstaining with hematoxylin.

Assay [3] concerns goblet cells in the conjunctiva. As to the kind of experiment: PAS staining of conjunctival goblet cells in CEC dry eye mice. The class given is in vivo, C57BL/6 mice. Conditions: CEC 14 days, then eye drop for 5 days; vehicle 37±1.1; non-stressed 58±3.1. The procedure: Reduced mucin production could result from reduced goblet cells. […] Briefly, C57BL6 mice were housed in CEC for 14 days and then treated with PDSP or vehicle for additional 5 days. Non-stressed eyes are included as non-stressed controls (NS).
as §1
After animals were euthanized, eyes were surgically excised, fixed in 10% formalin, paraffin embedded, and cut into 5-μm sections. […] PAS-positive goblet cells in the conjunctiva were measured in five sections from each eye.

As to “PDSP: 29mer, residues 93-121 of human PEDF: SLGAEQRTESIIHRALYYDLISSPDIHGT (SEQ ID NO:4) (listed as Homo sapiens)”, the “corneal damage by corneal fluorescein staining, human vs mouse 29mer” value in assay [1] is “protection from corneal surface damages”; in assay [1] (listed as human PDSP) it was “capable of restore the ocular surface damages”. Besides, in assay [2] (preventive: 100 μM PDSP topically 3 times a day from beginning of 14 days in CEC, vehicle 1.7±0.3), the “corneal fluorescein staining score (0 to 3)” value was determined as 0.7±0.2. In assay [2] (therapeutic: CEC 14 days to induce dry eye, then peptide on the eyes for 5 days), the “corneal surface damage by fluorescein staining” value is “essentially gone”. Besides, the “4-HNE signal in the conjunctiva” value in the assay on 4-HNE (versus vehicle) is reported as 4-HNE signal was clearly stronger in vehicle-treated eyes than in eyes subjected to the PDSP treatment. Moreover, the “number of cells positively stained for 4-HNE in corneal epithelia” value in the assay on 4-HNE (NS 1.9±0.6, vehicle 20.1±1.4) is 5.3±1.0. The “conjunctival goblet cell counts (PAS-positive cells)” value in assay [3] is listed as 46±3.8.
